Results: patent US20230331803A1, “CO-AGONISTS OF THE GLP-1 AND AMYLIN RECEPTORS” (priority 2020, published 2023)
Like-named read-outs stand apart in the source and are kept apart here. Starred links: 1 amine or outer side, 2 acyl side, 3 side chain; linkers in the order of their positions; H or OH if unused. Non-standard residues stand in square brackets, D forms with d. Groups on a side chain read outwards from the residue. *: point of attachment. Decanoyl(10-(4-HOOC-PhO)) = O=C(O)c1ccc(OCCCCCCCCCC(=O)*)cc1; C16 diacid = O=C(O)CCCCCCCCCCCCCCC(=O)*; γGlu = O=C(O)[C@H](CCC(=O)[*:2])N[*:1]; AEEA = NCCOCCOCC(=O)O; Aib = CC(C)(N)C(=O)O

Assays:
[1] = biological target: T1, human GLP-1 receptor (Homo sapiens, UniProt P43220); assay: Human GLP-1 receptor in vitro potency assay (CRE-luciferase reporter, BHK cells); assay type: cell-based
T1 construct: expressed in transfected cells; host or cells: BHK (Baby Hamster Kidney) cells, clone BHK 467-12A KZ-10, stably transfected, with CRE-luciferase reporter
Procedure: It is thus possible to measure GLP-1 receptor activity using a CRE-luciferase reporter gene introduced into Baby Hamster Kidney (BHK) cells co-expressing the GLP-1 receptor.
(§1) Cells were aliquoted and stored at -180° C. until use.
Plates were sealed and incubated at room temperature with gentle shaking for 30 minutes while protected from light. Luminescence was detected on a luminescence plate reader e.g. a Synergy 2 (BioTek).

[2] = biological target: T2, human amylin receptor (hAmyR3) (Homo sapiens, UniProt O60896+P30988); assay: Human amylin receptor in vitro potency assay (CRE-luciferase reporter, BHK cells); assay type: cell-based;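 further: BHK cells expressing human calcitonin receptor plus RAMP3 (amylin-3 receptor) with a CRE-luciferase reporter, agonist activity read as luminescence from cAMP-driven transcription, 7-point serial dilutions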
T2 construct: host or cells: BHK cells (Hollex-1 line: human calcitonin receptor (a) + CRE-Luc), further transfected with human RAMP3
Source text: Activation of hAmyR3 leads to increased cellular concentrations of cAMP. Consequently, transcription is activated by promotors containing multiple copies of the cAMP response element (CRE). It is thus possible to measure hAmyR3 activity using a CRE-luciferase reporter gene introduced into Baby Hamster Kidney (BHK) cells co-expressing the hAmyR3.
The cell line was further transfected with human receptor modifying protein 3 (RAMP3) using standard methods. This turns the human calcitonin receptor into a human amylin-3(a) receptor.
as §1
The plate was incubated over night at 37° C. in 5% CO2. On the day of the assay, cells were washed three times in assay buffer. Serial dilutions (7-fold dilutions, 7 concentrations pr. compound and one well containing only assay buffer) of comparator compounds and GLP-1 receptor-amylin receptor co-agonists were performed in assay buffer often starting from approximately 10-100 nM in 96-well plates and 30 µL of each concentration added to the 384-well assay plate with cells. […] The assay plate was sealed, incubated at room temperature with gentle shaking for 5 minutes followed by 30 minutes incubation without shaking while protected from light. Luminescence was detected on a luminescence plate reader e.g. a Synergy 2 (BioTek).

[3] = Pharmacokinetic studies in Beagle dogs after oral administration of SNAC-based tablets; assay type: in vivo; details: for Tmax / half-life: male, Beagle
Procedure: To be able to evaluate oral exposure following tablet dosing, tablet compositions comprising the test substance and SNAC (sodium N-(8-(2-hydroxybenzoyl)amino)caprylate) were prepared by mixing test substance with roller compacted SNAC and magnesium stearate as, e.g., described in WO 2019/149880. The amount of SNAC in the tablet composition was 100-300 mg, the amount of magnesium stearate in the tablet composition was 7.7 mg, and the target amount of each test substance in the tablet composition was 3-4 mg.
Pharmacokinetic (PK) studies in Beagle dogs were conducted to determine the exposure of the GLP-1 receptor-amylin receptor co-agonist after peroral administration.
For the pharmacokinetic studies male Beagle dogs were used, 2-7, or 1 to 5, years of age and weighing approximately 10-15, such as 10-12, kg at the start of the studies. The dogs were group housed in pens (12 hours light: 12 hours dark),and fed individually and restrictedly once daily with Royal Canin Medium Adult dog (Royal Canin Products, China Branch, or Brogaarden A/S, Denmark). Exercise and group social were permitted daily, whenever possible. The dogs were used for repeated pharmacokinetic studies with a suitable wash-out period between successive dosing. An appropriate acclimatisation period was given prior to initiation of the first pharmacokinetic study. All handling, dosing and blood sampling of the animals were performed by trained and skilled staff. Before the studies the dogs were fasted overnight and from 0 to 4 h after dosing. Besides, the dogs were restricted to water 1 hour before dosing until 4 hours after dosing, but otherwise have ad libitum access to water during the whole period.
The tablets used for the p.o. studies described herein were immediate release SNAC-based tablets dosed orally.
The tablets were administered in the following manner: 10 min prior to tablet administration the dogs may be dosed subcutaneously with approximately 3 nmol/kg of SEQ ID NO: 237, tablets were placed in the back of the mouth of the dog to prevent chewing. The mouth was then closed, and 10 mL of tap water was given by a syringe or gavage to facilitate swallowing of the tablet.
Blood was sampled at predefined time points for up till 240 hours, such as up till 10 hr, post dosing to adequately cover the full plasma concentration-time absorption profile of the GLP-1 agonist.
For each blood sampling time point approximately 0.8 mL of whole blood was collected in a 1.5 mL EDTA coated tube, and the tube was gently turned to allowing mixing of the sample with the EDTA. Blood samples (for example 0.8 mL) were collected in EDTA buffer (8 mM) and then centrifuged at 4° C. and 2000 G for 10 minutes. Plasma was pipetted into Micronic tubes on dry ice, and kept at -20° C. until analysis.
Blood samples were taken as appropriate, for example from a venflon in the cephalic vein in the front leg for the first 2 hours and then with syringe from the jugular vein for the rest of the time points (the first few drops were allowed to drain from the venflon to avoid heparin saline from the venflon in the sample).
Plasma concentration of the GLP-1 receptor-amylin receptor co-agonists were determined using LCMS. Individual plasma concentration-time profiles were analysed by a non-compartmental model in WinNonlin v. 5.0 or Phoenix v. 6.2 or 6.3 (Pharsight Inc., Mountain View, CA, USA), or other relevant software for PK analysis.
The individual plasma concentration-time profiles were analysed by non-compartmental analysis (NCA).

[4] = dogs, oral administration (tablet)
[5] = dog, in vivo, dogs, oral administration (tablet), read-out: Tmax
[6] = dog, in vivo, dogs, oral administration (tablet), read-out: T½ (converted)
[7] = Table 4a, BHK cells expressing human GLP-1R, CRE-Luc, 3 hours, read-out: Human GLP-1R potency [EC50 (pM)]
[8] = Table 4a, BHK hAmyR3/CRE-Luc cells, 3 hours, read-out: Human AmyR3 potency [EC50 (pM)]

T1 sequence (P43220 24-463): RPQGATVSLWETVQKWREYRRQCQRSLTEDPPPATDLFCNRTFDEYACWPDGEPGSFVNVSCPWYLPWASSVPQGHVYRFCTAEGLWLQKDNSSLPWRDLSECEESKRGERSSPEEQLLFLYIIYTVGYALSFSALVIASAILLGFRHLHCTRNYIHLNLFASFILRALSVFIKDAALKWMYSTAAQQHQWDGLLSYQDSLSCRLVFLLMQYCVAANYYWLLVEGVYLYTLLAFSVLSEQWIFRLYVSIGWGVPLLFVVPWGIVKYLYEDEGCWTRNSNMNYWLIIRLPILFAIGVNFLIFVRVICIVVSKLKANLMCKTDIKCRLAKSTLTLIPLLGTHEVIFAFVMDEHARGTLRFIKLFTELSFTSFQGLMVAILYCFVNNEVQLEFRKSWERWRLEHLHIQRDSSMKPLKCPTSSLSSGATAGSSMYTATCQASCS
T2 sequence (P30988 25-474): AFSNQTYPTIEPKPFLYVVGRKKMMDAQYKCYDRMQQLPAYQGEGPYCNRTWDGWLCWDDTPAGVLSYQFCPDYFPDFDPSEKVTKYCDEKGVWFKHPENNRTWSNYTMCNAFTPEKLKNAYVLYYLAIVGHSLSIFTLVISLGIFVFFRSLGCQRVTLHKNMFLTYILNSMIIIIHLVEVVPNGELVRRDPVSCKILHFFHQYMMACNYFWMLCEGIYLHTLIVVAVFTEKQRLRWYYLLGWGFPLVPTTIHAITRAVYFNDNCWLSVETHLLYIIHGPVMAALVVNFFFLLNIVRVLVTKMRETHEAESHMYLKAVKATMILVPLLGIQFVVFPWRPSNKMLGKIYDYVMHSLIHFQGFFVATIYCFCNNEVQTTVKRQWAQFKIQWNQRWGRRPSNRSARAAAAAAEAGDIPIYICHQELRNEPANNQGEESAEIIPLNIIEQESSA
T2 sequence (O60896 24-148): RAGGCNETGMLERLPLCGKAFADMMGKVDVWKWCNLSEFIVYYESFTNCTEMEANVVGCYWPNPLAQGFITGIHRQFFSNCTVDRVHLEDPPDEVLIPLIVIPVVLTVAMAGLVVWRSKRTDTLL

Molecule | EC50 [1, 7] | EC50 [2, 8] | AUC/D ([3]; dog, in vivo, po) | Cmax/D ([3]; dog, in vivo, po) | Tmax ([3]; dog, in vivo, po, Tmax (hr)) | half-life ([3]; dog, in vivo, po, T½ (hr)) | EC50 [1] | EC50 [2] | AUC/D [3, 4] | Cmax/D [3, 4] | Tmax [3, 5] | half-life [3, 6]
CC[C@H](C)[C@H](NC(=O)[C@H](Cc1ccccc1)NC(=O)[C@H](CCC(=O)O)NC(=O)[C@H](CCCNC(=N)N)NC(=O)[C@H](C)NC(=O)[C@H](C)NC(=O)[C@H](CCC(N)=O)NC(=O)[C@H](CCC(=O)O)NC(=O)[C@H](CCC(=O)O)NC(=O)[C@H](CC(C)C)NC(=O)[C@H](Cc1ccc(O)cc1)NC(=O)[C@H](CO)NC(=O)[C@H](CO)NC(=O)[C@H](CCCCNC(=O)COCCOCCNC(=O)COCCOCCNC(=O)CC[C@H](NC(=O)[C@H]1CC[C@H](CNC(=O)CCCCCCCCCCCCCCCCCCC(=O)O)CC1)C(=O)O)NC(=O)[C@H](CC(=O)O)NC(=O)[C@H](CO)NC(=O)[C@@H](NC(=O)[C@H](Cc1ccccc1)NC(=O)[C@@H](NC(=O)CNC(=O)[C@H](CCC(=O)O)NC(=O)[C@H](C)NC(=O)[C@@H](N)Cc1c[nH]cn1)[C@@H](C)O)[C@@H](C)O)C(=O)N[C@@H](CCC(=O)O)C(=O)N[C@@H](Cc1c[nH]c2ccccc12)C(=O)N[C@@H](CC(C)C)C(=O)N[C@H](C(=O)N[C@@H](CCCNC(=N)N)C(=O)NCC(=O)N[C@@H](CCCNC(=N)N)C(=O)NCC(=O)N[C@@H](CCC(=O)O)C(=O)N[C@@H](C)C(=O)N[C@@H](CO)C(=O)N[C@@H](CCC(=O)O)C(=O)N[C@@H](CC(C)C)C(=O)N[C@@H](CO)C(=O)N[C@H](C(=O)N[C@@H](C)C(=O)N[C@@H](C)C(=O)N[C@@H](CC(C)C)C(=O)NCC(=O)N[C@@H](CCCNC(=N)N)C(=O)N[C@@H](CC(C)C)C(=O)N[C@@H](CO)C(=O)N[C@@H](C)C(=O)N[C@@H](CCC(=O)O)C(=O)N[C@@H](CC(C)C)C(=O)N[C@@H](Cc1c[nH]cn1)C(=O)N[C@@H](CCC(=O)O)C(=O)N[C@@H](CC(C)C)C(=O)N[C@@H](C)C(=O)N[C@H](C(=O)N[C@@H](CC(C)C)C(=O)N1CCC[C@H]1C(=O)N[C@@H](CCCNC(=N)N)C(=O)N[C@H](C(=O)N[C@@H](CCC(=O)O)C(=O)N[C@H](C(=O)NCC(=O)N[C@@H](CO)C(=O)NCC(=O)N[C@@H](CO)C(=O)N1CCC[C@H]1C(N)=O)[C@@H](C)O)[C@@H](C)O)[C@@H](C)O)[C@@H](C)O)C(C)C [Compound 0431] | – | – | – | – | – | – | 10.9 pM | 11.9 pM | 9.75 kg·h/L | 0.29 kg/L | 1.5 h | 34 h
H-HWEGTFTSDVSSYLEEQAAREFIEWLVRGK([AEEA-AEEA-γGlu-Decanoyl(10-(4-HOOC-PhO))])GEGGGGGASELSTAALGRLSAELHELK([AEEA-AEEA-γGlu-Decanoyl(10-(4-HOOC-PhO))])TLPRTETGSGSP-NH2 [Compound 0234] | – | – | – | – | – | – | 38.9 pM | 38.4 pM | 8.00 kg·h/L | 0.35 kg/L | 1 h | 31 h
H-HWEGTFTSDVSSYLEEQAAREFIEWLVRGK([AEEA-AEEA-γGlu-Decanoyl(10-(4-HOOC-PhO))])GEGGGGGASELSTAALGRLSK([AEEA-AEEA-γGlu-Decanoyl(10-(4-HOOC-PhO))])ELHELATLPRTETGSGSP-NH2 [Compound 0233] | – | – | – | – | – | – | 46.4 pM | 182 pM | 8.43 kg·h/L | 0.3 kg/L | 1.5 h | 43 h
H-H[Aib]EGTFTSDK([AEEA-AEEA-γGlu-C16 diacid])SSYLEEQAAREFIAWLVRGRGGGGGASELSTAALGRLSK([AEEA-AEEA-γGlu-C16 diacid])ELHELATLPRTETGSGSP-NH2 [Compound 0292] | 12 pM | 33.8 pM | 65.29 kg·h/L | 0.72 kg/L | 2 h | 110 h | – | – | – | – | – | –
H-H[Aib]EGTFTSDK([AEEA-AEEA-γGlu-C16 diacid])SSYLEEQAAREFIAWLVRGRGGGGGEASELSTAALGRLSAELHK([AEEA-AEEA-γGlu-C16 diacid])LATLPRTETGSGSP-NH2 [Compound 0259] | 15.8 pM | 12 pM | 31.73 kg·h/L | 0.48 kg/L | 1.5 h | 97 h | – | – | – | – | – | –

Second part, led by results:

EC50 [1, 7] | EC50 [2, 8] | AUC/D ([3]; dog, in vivo, po) | Cmax/D ([3]; dog, in vivo, po) | Tmax ([3]; dog, in vivo, po, Tmax (hr)) | half-life ([3]; dog, in vivo, po, T½ (hr)) | Molecule | EC50 [1] | EC50 [2] | AUC/D [3, 4] | Cmax/D [3, 4] | Tmax [3, 5] | half-life [3, 6]
3.8 pM | 22 pM | 37.01 kg·h/L | 0.5 kg/L | 1.5 h | 107 h | H-H[Aib]EGTFTSDVSK([AEEA-AEEA-γGlu-C16 diacid])YLEEQAAREFIAWLVRGRK([AEEA-AEEA-γGlu-C16 diacid])GGGGEASELSTAALGRLSAELHELATLPRTETGSGSP-NH2 [Compound 0528] | – | – | – | – | – | –
2.5 pM | 26.9 pM | 30.60 kg·h/L | 0.39 kg/L | 1.3 h | 90 h | H-H[Aib]EGTFTSDVSK([AEEA-AEEA-γGlu-C16 diacid])YLEEQAARK([AEEA-AEEA-γGlu-C16 diacid])FIAWLVRGRQEASELSTAALGRLSAELHELATLPRTETGSGSP-NH2 [Compound 0578] | – | – | – | – | – | –
5.6 pM | 8.3 pM | 27.60 kg·h/L | 0.34 kg/L | 1.5 h | 91 h | H-H[Aib]EGTFTSDVSK([AEEA-AEEA-γGlu-C16 diacid])YLEEQAARK([AEEA-AEEA-γGlu-C16 diacid])FIAWLVRGRQEGGGGGASELSTAALGRLSAELHELATLPRTETGSGSP-NH2 [Compound 0575] | – | – | – | – | – | –
